Assays:
ovalbumin [1] = assay: Adjuvant character in emulsion: serum antibodies specific for ovalbumin; type: in vivo, Hartley guinea pigs; conditions: emulsion with 1 mg ovalbumin, intradermal; product 50 μg in FIA; day 21; μg nitrogen precipitatable by antigen per ml serum
Procedure: (§1) The tests were carried out on batches of 6 male Hartley guinea pigs of 350 g. The administration was done by intradermal injection into the plantar pad of each of the rear paws. Ovalbumin (constituting the antigen) in the amount of 1 mg is prepared in 0.1 ml of an emulsion of saline isotonic solution, in an oily phase constituted either by the Freund incomplete adjuvant (FIA) or by the complete adjuvant (FCA) formed by the FIA to which is added 0.1 mg of whole Mycobacterium smegmatis cells. The compound according to the invention was administered in the amount of 0.05 mg added in the emulsion containing the FIA.
Twenty-one days after the injection, the animals were bled. On the collected serum, the content of specific antibodies of the ovalbumin was measured by precipitation of the antibody-antigen complex in the equivalence zone. The amount of protein nitrogen contained in the precipitate was estimated by the Folin method. These values express the amount, in micrograms, of nitrogen precipitatable by the antigen, per milliliter of the serum.

ovalbumin [2] = assay: Adjuvant character in emulsion: delayed hypersensitivity cutaneous test; type: in vivo, Hartley guinea pigs; conditions: emulsion with 1 mg ovalbumin, intradermal; product 50 μg in FIA; challenge day 18, read 48 hours later
Procedure: as §1
Eighteen days after this immunization, possible delayed hypersensitivity reactions to the antigen were sought by injecting by the intradermal route 0.01 mg of ovalbumin in the side of the animals, and 48 hours later, the reaction of the point of injection was observed. The diameter in millimeters of the reaction thus-caused was measured.

Klebsiella pneumoniae [3] = assay: Anti-Klebsiella pneumoniae activity in the adult mouse; type: in vivo; conditions: for anti-infectious activity with respect to Klebsiella pneumoniae (in words) / % Protection / Number of mice D + 3 (survivors) / Number of mice D + 5 (survivors) / Number of mice D + 10 (survivors): adult mouse; for anti-infectious activity with respect to Klebsiella pneumoniae (in words): summary of Table 3; for % Protection / Number of mice D + 3 (survivors) / Number of mice D + 5 (survivors) / Number of mice D + 10 (survivors): i.v.
Procedure: An experimental procedure was studied by CHEDID L. et coll. in "Proc. Natl. Acad. Sci. USA," 1977, 74: 2089, which permits the stimulating effect or not to be observed of substances studied with regard to immune defenses according as they protect or not the mice to which they are injected, the mice being inoculated by a dose of Klebsiella pneumoniae which results in the death of almost all of the controls.
(§2) The testing procedure is described in the article CHEDID L. et coll., Proc. Natl. Acad. Sci. USA, 74:2089.
(§3) It was shown that a dose of about 10^4 Klebsiella pneumoniae, injected by the intramuscular route in mice, results in the gradual death of a considerable part, if not all, of the animals in the week following the inoculation. After 8 days, the survival of the animals was definitely achieved.
The survival of groups of inoculated mice under the above conditions and treated by means of the products according to the invention was followed.
For these tests, hybrid mice (C57B1/6×AKR) FI bred at the PASTEUR INSTITUTE, from strains derived from the CNRS breeding station at ORLEANS, were used.
(§4) The infection by Klebsiella pneumoniae, a strain of the capsular 2, biotype d type, was done from a culture of 16 hours in a medium for pneumococci (No. 53515, PASTEUR INSTITUTE).
(§5) Various treatment conditions and tests have been studied. Thus, the treatment was carried out either 24 hours before the test, or 1 hour after the latter. The influence of the infecting dose and the mode of administration has also been studied. In particular, the protective properties of the products have been determined in the case of an injection of Klebsiella pneumoniae by the intravenous route, which corresponds to a severe infection.
(§6) In the majority of cases, the tests have been carried out on mice aged from 5 to 6 weeks. In one part of the tests, on the other hand, mice 7 days old were used, since the immune responses, in very young subjects are substantially different, and, on the whole, much more difficult to stimulate than those that are observed in adult subjects.
(§7) The products are administered in apyrogenic physiological solution in the proportion of 0.2 ml for intravenous administration to adult mice and 0.05 ml for sub-cutaneous injection to mice 7 days old. The controls received the solution alone.
(§8) The percentage protection indicated corresponds to the difference in percentages of survivors of the treated group with respect to the control group.

[4] = test system: bovine serum albumin (BSA); assay: Adjuvant character in the aqueous phase (anti-BSA antibody titer, passive hemagglutination); type: in vivo, Swiss mice; conditions: 100 μg adjuvant s.c. with 0.5 mg BSA in isotonic saline; booster day 30; six days after booster; maximum serum dilution agglutinating
Procedure: Groups of 8 Swiss mice aged two months received, by sub-cutaneous injection (SC), 0.5 mg of antigen constituted by bovine serum albumin (BSA) with 0.1 mg or without the tested substance in an isotonic saline solution. This high dose of antigen, because it is situated at the limit of the paralyzing dose with respect to the immunitary response, results, for this reason, in a weak or zero response to the antigen only in the controls: It constitutes therefore a severe criterion to establish the activity of an adjuvant substance. Thirty days later, the mice received, by the same administrative route, a booster containing 0.1 mg of the same antigen.
The antibody level was determined, six days after the booster, by passive hemagglutination using sheep's red blood corpuscles treated with formalin and covered with the antigen studied according to the method described by A. A. HIRATA and M. W. BRANDISS (J. Immunol., 100, 641-648, 1968).
The antibody titer, represented by the maximum serum dilution agglutinating a given amount of sheep corpuscles, reaches a maximum at the 36th day. The results obtained for various products according to the invention are shown in Table I. By way of comparison, the results obtained with MDP are indicated, on the one hand, and for PAP-MDP, on the other hand.

Listeria monocytogenes = assay: Anti-Listeria monocytogenes activity in the adult mouse; type: in vivo; conditions: Listeria i.v. 10^3, treatment D-1, i.v.
Procedure: Under similar conditions to those of the tests of (4), the influence of the administration of the oligomer of p.aminophenyl-glycoside MDP was determined on the mortality of mice in which a dose of Listeria monocytogenes is administered, known for generating typically an infection of cellular type. As previously, the action of the product according to the invention was compared with that of Corynebacterium granulosum of which the anti-infectious properties are well known in this field. It was also determined, still by way of comparison, the action of Mur-NAc-L-Ala-D-isoGln (MDP).
The treatment of the mice and the inoculation were carried out intravenously. The injected products were in solution or suspension in 0.2 ml of apyrogenic physiological solution. The controls only received the solution.
The dose of Listeria administered was, in all the tests, 1.10^3 units.
The test whose results are given below have been carried out varying the doses of the tested products and the interval of time separating the treatment of inoculation of the Listeria monocytogenes (either 1, or 7 days). The number of surviving mice at the fifth and the tenth day following the inoculation was followed, and the percentage protection determined as for the preceding tests.

[5] = test system: Limulus amoebocyte lysate; assay: Limulus test (endotoxic type activity, gel formation)
Procedure: To show the absence of activity of the endotoxic type, products according to the invention were subjected to the Limulus test. For this purpose, 0.1 ml of the Limulus amoebocyte lysate preparation (marketed by the MALLINCKRODT Company, at Saint Louis, U.S.A.) was mixed with an equal volume of the tested product at various concentrations in solution in apyrogenic distilled water. The vessels used were also made apyrogenic by dry heating in the oven, at 180° C., for 2 hours.
After incubating the mixture for 20 minutes at 37° C. in tubes, the formation of gel characteristic of the presence of endotoxin was estimated.
A test is positive when the presence of a firm gel is observed which remains adherent to the bottom of the tube when the latter is inverted (technique described by Elin R. J. and Wolff S. M., J. Infect. Dis., 1973, 126: 349).

Klebsiella pneumoniae [6] = assay: Anti-Klebsiella pneumoniae activity in the 7 day old mouse; type: in vivo; conditions: for % Protection / Number of mice D + 3 (survivors) / Number of mice D + 5 (survivors) / Number of mice D + 10 (survivors): 100 μg
Text: as §2, §3, §4, §5, §6, §7, §8
The results reported in the following table represent the tests carried out in mice aged 7 days.

[7] = test system: suprarenalectomized mouse; assay: Toxicity, intravenous injection in the suprarenalectomized mouse; type: in vivo
Text: The toxicity of the products according to the invention were studied by parenteral administration in mice. It was observed that the toxic doses were of an order of magnitude very much higher than that of the doses at which these products manifest their activity.
In addition, the activity/toxicity ratio is very favorable in the case of the pol-PAP-MDP, as appears when one considers the results of the tests reported below.

[8] = infection i.m. 1.5 × 10^4, treatment -24 h, 100 μg
[9] = infection i.v. 1.5 × 10^3, treatment -24 h, 100 μg
[10] = infection i.v. 2.5 × 10^2, treatment -24 h, s.c.
[11] = infection s.c. 10^3, treatment -24, s.c.
[12] = infection i.m. 1.5 × 10^4, treatment +1 h, 10 μg
[13] = infection i.m. 1.5 × 10^4, treatment +1 h, 100 μg
[14] = infection i.m. 1.5 × 10^4, treatment -24 h, 10 μg
[15] = infection i.v. 1.5 × 10^3, treatment -24 h, 10 μg
[16] = infection i.v. 1.5 × 10^5, treatment -24 h, 100 μg

Molecule: CC(=O)N[C@H]1[C@H](Oc2ccc(N)cc2)O[C@H](CO)[C@@H](O)[C@@H]1O[C@H](C)C(=O)N[C@@H](C)C(=O)N[C@H](CCC(=O)O)C(N)=O [PAP-MDP, β-D-p.aminophenyl glycoside of N-acetyl-muramyl-L-alanyl-D-isoglutamine, reference compound]
- Serum antibodies (ovalbumin [1]): 3480 µg/mL
- Cutaneous test diameter in mm (ovalbumin [2]): 14.4 mm
- anti-infectious activity with respect to Klebsiella pneumoniae (in words) (Klebsiella pneumoniae [3]): practically not
- % Protection (Klebsiella pneumoniae [3]; [8]): 19%
- Number of mice D + 3 (survivors) (Klebsiella pneumoniae [3]; [8]): 28
- Number of mice D + 5 (survivors) (Klebsiella pneumoniae [3]; [8]): 17
- Number of mice D + 10 (survivors) (Klebsiella pneumoniae [3]; [8]): 11
- % Protection (Klebsiella pneumoniae [3]; [9]): 0%
- Number of mice D + 3 (survivors) (Klebsiella pneumoniae [3]; [9]): 6
- Number of mice D + 5 (survivors) (Klebsiella pneumoniae [3]; [9]): 2
- Number of mice D + 10 (survivors) (Klebsiella pneumoniae [3]; [9]): 2
- Antibody titer [4]: 11

Molecule: N^ε.N^ε' 'bis(N-acetyl-muramyl-L-alanyl-D-isoglutamine-L-lysine)-adipimidyl, dichlorohydrate [Adipimidyl-bis-MDP-Lys]
- Serum antibodies (ovalbumin [1]): 6000 µg/mL
- Cutaneous test diameter in mm (ovalbumin [2]): 17 mm
- % Protection (Klebsiella pneumoniae [3]; [8]): 44%
- Number of mice D + 3 (survivors) (Klebsiella pneumoniae [3]; [8]): 27
- Number of mice D + 5 (survivors) (Klebsiella pneumoniae [3]; [8]): 23
- Number of mice D + 10 (survivors) (Klebsiella pneumoniae [3]; [8]): 22
- Antibody titer [4]: 200

Molecule: polymer of β-D-p.aminophenyl-glycoside of Mur-NAc-L-Ala-D-isoGln [Pol (PAP-MDP)]
- % Protection (Listeria monocytogenes; 10 μg): 29%
- Number of mice D + 5 (survivors) (Listeria monocytogenes; 10 μg): 10
- Number of mice D + 10 (survivors) (Listeria monocytogenes; 10 μg): 6
- % Protection (Listeria monocytogenes; 100 μg): 71%
- Number of mice D + 5 (survivors) (Listeria monocytogenes; 100 μg): 23
- Number of mice D + 10 (survivors) (Listeria monocytogenes; 100 μg): 19
- times less active than the LPS on Limulus test [5]: 500,000 times
- concentration leading to a positive response (Limulus test) ([5]; 20 minutes at 37° C., firm gel): ~15000 ng/mL
- % Protection (Klebsiella pneumoniae [6]; [10]): 41%
- Number of mice D + 3 (survivors) (Klebsiella pneumoniae [6]; [10]): 14
- Number of mice D + 5 (survivors) (Klebsiella pneumoniae [6]; [10]): 10
- Number of mice D + 10 (survivors) (Klebsiella pneumoniae [6]; [10]): 9
- % Protection (Klebsiella pneumoniae [6]; [11]): 34%
- Number of mice D + 3 (survivors) (Klebsiella pneumoniae [6]; [11]): 22
- Number of mice D + 5 (survivors) (Klebsiella pneumoniae [6]; [11]): 19
- Number of mice D + 10 (survivors) (Klebsiella pneumoniae [6]; [11]): 19
- anti-infectious activity with respect to Klebsiella pneumoniae (in words) (Klebsiella pneumoniae [6]; summary of Table 4): notable anti-infectious activity
- anti-infectious activity with respect to Klebsiella pneumoniae (in words) (Klebsiella pneumoniae [3]): anti-infectious
- % Protection (Klebsiella pneumoniae [3]; [12]): 50%
- Number of mice D + 3 (survivors) (Klebsiella pneumoniae [3]; [12]): 16
- Number of mice D + 5 (survivors) (Klebsiella pneumoniae [3]; [12]): 13
- Number of mice D + 10 (survivors) (Klebsiella pneumoniae [3]; [12]): 11
- % Protection (Klebsiella pneumoniae [3]; [13]): 81%
- Number of mice D + 3 (survivors) (Klebsiella pneumoniae [3]; [13]): 16
- Number of mice D + 5 (survivors) (Klebsiella pneumoniae [3]; [13]): 16
- Number of mice D + 10 (survivors) (Klebsiella pneumoniae [3]; [13]): 16
- % Protection (Klebsiella pneumoniae [3]; [14]): 58%
- Number of mice D + 3 (survivors) (Klebsiella pneumoniae [3]; [14]): 24
- Number of mice D + 5 (survivors) (Klebsiella pneumoniae [3]; [14]): 21
- Number of mice D + 10 (survivors) (Klebsiella pneumoniae [3]; [14]): 19
- % Protection (Klebsiella pneumoniae [3]; [8]): 72%
- Number of mice D + 3 (survivors) (Klebsiella pneumoniae [3]; [8]): 24
- Number of mice D + 5 (survivors) (Klebsiella pneumoniae [3]; [8]): 24
- Number of mice D + 10 (survivors) (Klebsiella pneumoniae [3]; [8]): 22
- % Protection (Klebsiella pneumoniae [3]; [15]): 16%
- Number of mice D + 3 (survivors) (Klebsiella pneumoniae [3]; [15]): 22
- Number of mice D + 5 (survivors) (Klebsiella pneumoniae [3]; [15]): 17
- Number of mice D + 10 (survivors) (Klebsiella pneumoniae [3]; [15]): 9
- % Protection (Klebsiella pneumoniae [3]; [9]): 75%
- Number of mice D + 3 (survivors) (Klebsiella pneumoniae [3]; [9]): 15
- Number of mice D + 5 (survivors) (Klebsiella pneumoniae [3]; [9]): 14
- Number of mice D + 10 (survivors) (Klebsiella pneumoniae [3]; [9]): 14
- % Protection (Klebsiella pneumoniae [3]; [16]): 12%
- Number of mice D + 3 (survivors) (Klebsiella pneumoniae [3]; [16]): 12
- Number of mice D + 5 (survivors) (Klebsiella pneumoniae [3]; [16]): 4
- Number of mice D + 10 (survivors) (Klebsiella pneumoniae [3]; [16]): 3
- active dose (anti-infectious activity) (Klebsiella pneumoniae [3]; as stated in the Limulus discussion): 10 μg per mouse
- Antibody titer [4]: 50
- lethal dose 50 [7]: higher than 100 μg
- times less toxic than endotoxin extracted from E. coli [7]: 5000 times
